# Source: US20030027819A1, “Beta-sheet mimetics and methods relating to the use thereof” (Molecumetics Ltd., priority 1996, published 2003)
# Experiments:
# [1] = tested on: TNF induced V-CAM expression in human umbilical vein entothelial cells (HUVEC); experiment: Inhibition of TNF induced V-CAM expression in HUVEC; type: cell-based
# Method: Upon stimulation with inflammatory cytokines, HUVEC express cell surface adhesion molecules, including E-selectin, V-CAM, and I-CAM. Proteasome antagonists inhibit TNFα induced expression of these adhesion molecules, thereby providing a mechanism for regulating leucocyte adhesion and the inflammatory response.
# More specifically, compounds (65), (68), (69) and (71) were assayed by the procedures set forth by Deisher, Kaushansky and Harlan (“Inhibitors of Topoisomerase II Prevent Cytokine-Induced Expression of Vascular Cell Adhesion Molecule-1, While Augmenting the Expression of Endothelial Leukocyte Adhesion Molecule-1 on Human Umbilical Vein Endothelial Cells,” Cell Adhesion Commun. 1:133-42, 1993) (incorporated herein by reference), with the exception that tetramethyl benzidine was used in place of o-phenylenediamine-peroxide.
# thioredoxin = experiment: Insulin disulfide reduction by thioredoxin (turbidity at 650 nm); settings: 8 μM thioredoxin, 0-100 μM compound, 60 minutes
# Method: A slight modification of the method of Holmgren was used. on a 96 well microtiter plate solutions of thioredoxin in 0.1 M potassium phosphate pH 6.5 buffer were preactivated for 15 minutes in the presence of 0.33 mM dithiothreitol (DTT) and 2 mM EDTA.
# As a positive control, the structurally related natural products parthenolide and santonin were tested in the above assay in place of the inhibitors.
# thrombin = thrombin (Bos taurus, UniProt P00735); experiment: Thrombin inhibition by solid phase compounds of Tables 11-15; type: biochemical; set-up: 100 μl of 10 μM thrombin solution; settings: mixtures of diastereomers; read-out: Ki as thrombin inhibitors (mark at Cpd. No.)
# Method: Following extensive washing with DMF, the resin was treated with the acid fluoride of N-Fmoc-4-aminomethylbenzoic acid, or (81), or (86) and Hunigs' base in DMF until the Kaiser test was negative. Alternatively, the Fmoc-protected thiazole-(75) or imidazole-based (77) linkers were coupled to the resin using BOP, HOBt and DIEA. In some instances Fmoc-Leu or another amino acid was attached to the resin prior to the thiazole-(75) or imidazole-based (77) linkers via the same methodology. […] Following washing with DMF a dienoic acid was coupled to the resin-bound linkers using PyBOP, HOBt and Hunigs' base in DMF until the result of a Kaiser test was negative. The cycloaddition was performed by pretreatment of a solution of a pyrazolidinedione (not shown) or urazole in DMF with a solution of [bis(trifluoroacetoxy)iodo]benzene in DMF. […] The resin was then washed with DMF and CH2Cl2. Oxidation to the ketoamide was effected by treatment of the resin with a solution of Dess-Martin periodinane in DMSO for 60 min. […] The supernatant was collected and the resin was washed with additional TFA. The combined filtrates were concentrated in vacuo. The residue was precipitated with diethyl ether and the ether was decanted. The resulting solid was reconstituted in 1:1 CH3CN:H2O and lyophilized. […] The compounds were assayed for inhibition of coagulation enzymes as mixtures of diastereomers.
# control plasma = experiment: Prothrombin time (PT) in control plasma; type: biochemical
# Method: Then 200 μl of prewarmed (at 37° C. for ˜10 minutes) thromboplastin with calcium (from Sigma) was rapidly added into the plasma sample.
compound,measurement,setting,value
O=C(CCl)c1cccc2c1C(=O)N(c1ccccc1)C2=O [Structure 65],IC50,[1],9.6 ± 0.1 µM
O=C(CCl)C1CCCn2c(=O)n(-c3ccccc3)c(=O)n21 (stereo not shown) [Structure 68],IC50,[1],14.2 ± 0.8 µM
"CC1=C2[C@H]3OC(=O)[C@@H](C)[C@@H]3CC[C@@]2(C)C=CC1=O [Santonin, reference compound]",thioredoxin-induced turbidity of insulin at 650 nM,thioredoxin,did not block thioredoxin-induced turbidity of insulin
COC(=O)C#CC(O)c1cccc2c1C(=O)N(c1ccccc1)C2=O (stereo not shown) [Structure 71],IC50,[1],4.9 ± 0.18 µM
CC(C)(C)CC1C=CC(C(=O)NC(CCCCN)C(=O)C(=O)NCCc2ccc(C(N)=O)cc2)n2c(=O)n(Cc3cc(F)ccc3F)c(=O)n21 (stereo not shown) [Structure 225],Ki,thrombin,< 0.01 µM
CC1=CC(C(=O)NCC2CCC(C(=N)N)CC2)n2c(=O)n(CC(c3ccccc3)c3ccccc3)c(=O)n2C1 (stereo not shown) [Structure 221-18],Ki,thrombin,< 0.01 µM
NCCCCC(NC(=O)C1C=C2CCCCC2n2c(=O)n(Cc3cc(F)ccc3F)c(=O)n21)C(=O)C(=O)NCCc1ccc(C(N)=O)cc1 (stereo not shown) [Structure 101],Ki,thrombin,< 0.01 µM
COC(=O)/C=C/C(=O)C1C=CC(C)n2c(=O)n(-c3ccccc3)c(=O)n21 (stereo not shown) [Structure 233],thioredoxin-induced turbidity of insulin at 650 nM,thioredoxin,turbidity decreases with increasing concentration
CC1=CC(C(=O)NC(CCCNC(=N)N)C(=O)c2nc(C(N)=O)cs2)n2c(=O)n(CC(c3ccccc3)c3ccccc3)c(=O)n2C1 (stereo not shown) [Structure 198],Ki,thrombin,< 0.01 µM
NCCCCC(NC(=O)C1C=C2CCCCC2n2c(=O)n(CCc3cccs3)c(=O)n21)C(=O)C(=O)NCCc1ccc(C(N)=O)cc1 (stereo not shown) [Structure 119],Ki,thrombin,< 0.01 µM
CC1C=CC(C=O)n2c(=O)n(-c3ccccc3)c(=O)n21 (stereo not shown) [Structure 69],IC50,[1],32.4 ± 1.7 µM
CC(C)CC1C=CC(C(=O)NC(CCCCN)C(=O)C(=O)NCCc2ccc(C(N)=O)cc2)n2c(=O)n(CC(C)c3ccccc3)c(=O)n21 (stereo not shown) [Structure 111],Ki,thrombin,< 0.01 µM
N=C(N)NCCC[C@H](NC(=O)[C@@H]1CCN2CC[C@@](N)(Cc3ccccc3)C(=O)N12)C(=O)CCl [Structure 13b],PT,control plasma; Concentration 1 pM,13 s
same,PT,control plasma; Concentration 10 pM,17 s
same,PT,control plasma; Concentration 50 pM,18 s
same,PT,control plasma; Concentration 100 pM,23 s
same,PT,control plasma; Concentration 200 pM,24 s
same,PT,control plasma; Concentration 500 pM,27 s
same,PT,control plasma; Concentration 1 nM,30 s
same,PT,control plasma; Concentration 10 nM,31 s
same,PT,control plasma; Concentration 30 nM,31 s
same,PT,control plasma; Concentration 50 nM,30 s
same,PT,control plasma; Concentration 80 nM,33 s
CC(C)(C)CC1C=CC(C(=O)NC(CCCCN)C(=O)C(=O)NCCc2ccc(C(N)=O)cc2)n2c(=O)n(Cc3ccccc3)c(=O)n21 (stereo not shown) [Structure 140],Ki,thrombin,< 0.01 µM
CC1=CC(C(=O)NC(CCCCN)C(=O)C(=O)NCCc2ccc(C(N)=O)cc2)N2C(=O)C(CC(C)C)(CC(C)C)C(=O)N2C1 (stereo not shown) [Structure 188],Ki,thrombin,< 0.01 µM
CC1=CC(C(=O)NC(CCCCN)C(=O)C(=O)NCCc2ccc(C(N)=O)cc2)n2c(=O)n(Cc3ccc(C(F)(F)F)c(F)c3)c(=O)n2C1 (stereo not shown) [Structure 137],Ki,thrombin,< 0.01 µM
CC1=CC(C(=O)NC(CCCCN)C(=O)C(=O)NCCc2ccc(C(N)=O)cc2)N2C(=O)C(Cc3ccccc3)(Cc3ccccc3)C(=O)N2C1 (stereo not shown) [Structure 187],Ki,thrombin,< 0.01 µM
COC(=O)C#CC(O)C1C=CC(C)n2c(=O)n(-c3ccccc3)c(=O)n21 (stereo not shown) [Structure 231],thioredoxin-induced turbidity of insulin at 650 nM,thioredoxin,turbidity decreases with increasing concentration
